Melting point data for 87 molecules are collected here from a melting point compilation (Tetko et al.; mined from patent text by program, amines drawn as free bases though some values may be those of a salt).

Turning to `CC(C)(C)C1=CC(C(F)(F)F)=CCC1(O)C(C)(C)C` (configuration not stated), the melting point lay in the range of 78 to 80 °C. With `CCOC(=NC(=O)c1ccc(-c2ccccc2)cc1)N1Cc2ccccc2-c2ccccc2C1` the figure was 52 to 58 °C; with `O=C1CCCN1CCc1c2ccccc2n2c1[nH]c(=O)c1ccccc12`, 154 to 155 °C. The result for `CCC(O)(C#CC(O)c1ccc(SC)cc1)CC` (configuration not stated) reads 64 to 65 °C. In turn, `N=C(NO)c1ccc(-c2cccc(-c3nc4cc(C(=N)NO)ccc4[nH]3)c2)cc1` displayed a melting point of 317 to 319 °C. The result for `CCC(CC)n1c(=O)sc2c(=O)[nH]c(N)nc21` reads more than 232 °C; that for `COC(=O)c1ccc(OC)c(Nc2cc(Cl)cc(Cl)c2)c1`, 134 to 135 °C. Molecule `O=C(O)c1c(Cl)c(Cl)c(Cl)c(Cl)c1C(=O)Nc1ccc(S(=O)(=O)C(F)(F)F)cc1` had a melting point of 92 to 97 °C. Take `O=C1c2cccc3cccc(c23)C(=O)N1CCCCCO`: the melting point lay in the range of 96.5 to 97.5 °C.

Turning to `Clc1ccccc1-c1cc(-c2ccccc2)c(-c2ccccc2Cl)nn1`, the melting point is 176 to 178 °C.

In turn, `Cc1nc(N2CCC(Cc3ccc(C(F)(F)F)cc3)C2=O)sc1C(=O)NCc1ccc(F)cc1` (configuration not stated) displayed a melting point of 175 to 176 °C. With `CCc1nc(Cl)nc(N)c1C#N` the figure was 226 °C; with `CN1CC(=O)c2ccc3ccccc3c2S1(=O)=O`, 192 to 193 °C. The result for `COc1cc(OC)nc(NC(=O)NS(=O)(=O)c2ccccc2-c2ccno2)n1` reads 183 to 187 °C; that for `Cc1cc(C)c(-c2cn(C)c3nc(N)n(C)c(=O)c23)c(C)c1`, 229 to 231 °C. The result for `C=C(Br)c1cc(O)cc2nc(-c3ccc(O)c(F)c3F)oc12` reads 240 to 242 °C; that for `COC(=O)CCCCCCCCCCCCCCCCCCCCCN1C(=O)c2ccccc2C1=O`, 88.5 to 90.5 °C; that for `CC(=O)C1CCC2C3CCC4CC(C)(O)CCC4(C)C3CCC12C` (configuration not stated), 103 °C.

With `CNC(=O)Oc1ccc(N=Cc2ccccc2O)c(C)c1`, the melting point lay in the range of 156 to 157 °C. The molecule `CSCCNC(N)=Nc1ccccc1N1CCOCC1` displayed a melting point of 115 to 116 °C. As to `CC(C)(C)NC(=S)Nc1cc(Cl)cc(Cl)c1`, the melting point lay within 164 to 165 °C. The result for `NS(=O)(=O)c1ccc(-c2cn(-c3nc(-c4ccc(Cl)cc4)cc(C(F)(F)F)n3)cn2)cc1` reads 324 °C; that for `NCCNC(=O)c1ccc2c(c1)OCO2`, 120 to 123 °C; that for `COCc1c(C(=O)OC(C)(C)C)ncc2[nH]c3ccc(Oc4ccc(Br)cn4)cc3c12`, 173 to 175 °C. With `Cc1c(OCc2ccccc2)c(=O)ccn1CCC(=O)O` the figure was 81 to 83 °C. Turning to `COc1ccc2c(c1)CCC1=C2CCC2(CC(C)C)C(=O)CC=C12` (configuration not stated), the melting point was in the range of 57 to 60 °C.

On to `CN(C)c1cc(C(=O)CS(C)(=O)=O)cc(N(C)C)c1`, for which the melting point was 151 to 153 °C. The result for `Cc1nc(-c2ccc(C(=N)NO)cc2)sc1C(=O)N[C@H](C)[C@](O)(Cn1cncn1)c1ccc(F)cc1F` reads 135 to 148 °C; that for `O=C1SCC(O)=C1Cc1ccc2ccccc2c1`, 238 to 239 °C.

`COc1ccc(OC)c(-c2cc3c(Nc4cccc(Cl)c4)ncnc3[nH]2)c1` registered a melting point of 267 to 268 °C. In turn, `NC(=S)c1cc(Oc2ccc(C(F)(F)F)cc2Cl)ccc1[N+](=O)[O-]` showed a melting point of 152 °C. `O=c1cc(O)n(-c2cccc(C(F)(F)F)c2)nc1-c1ccnn1-c1ccccc1` showed a melting point of 241 to 243 °C.

`CC(C)Oc1ncnc2c(O)ccc(Cl)c12` yielded a melting point of 126 °C. With `CCCCN(C=Nc1nnnc2c1ncn2C1CC(O)C(CO)O1)CCCC` (configuration not stated) the figure was 107 to 109 °C; with `O=C(NC(=O)N(SC(Cl)(Cl)Cl)c1ccc(C(F)(F)F)cc1)c1c(F)cccc1F`, 129 to 130 °C; with `CN(C)C(=S)SC(c1ccc(Cl)cc1Cl)C(C(c1ccc(Cl)cc1Cl)N(C)C)[N+](=O)[O-]` (configuration not stated), 152 to 154 °C. With `CC(C)(C)OC(=O)C1CSC(c2cccc(F)c2F)N1` (mixture of isomers) the figure was 120 °C; with `O=C(N[C@H]1CCN(C(=O)c2cc(C(F)(F)F)cc(C(F)(F)F)c2)[C@H](Cc2ccc(Cl)cc2)C1)c1ccnc2ccccc12`, 204 to 207 °C; with `CCOC(=O)C=Cc1cc(OCc2ccccc2)ccc1-c1ccc(-c2cccnc2)c(C=O)c1`, 126 to 128 °C. For the molecule `O=C1NC(c2cccs2)=C2C(=O)NC(c3cccs3)=C12`, the melting point is more than 400 °C. The result for `CCCn1c(=O)c(-c2ccccc2)c2n(c1=O)CCC(Sc1ccccc1)S2` (configuration not stated) reads 126 to 127 °C; that for `COC(=O)c1oc2ccc(OC)cc2c1OCc1ccccc1`, 81 to 84 °C; that for `CN(Cc1cccs1)C(=O)C1(c2ccc(F)cc2)CCCC1`, 72 to 75 °C. In the case of `CO[C@@H]([C@H](OC)[C@H](O)COS(C)(=O)=O)[C@H](O)COS(C)(=O)=O`, the melting point was 112 to 114 °C. With `CS(=O)(=O)c1ccc(C(CC2CCCC2)C(=O)Nc2cnc(C(C#N)=NO)cn2)cc1Cl` (configuration not stated) the figure was 130 to 133 °C. In the case of `CCCCOCC1OC(n2c(Cl)nc3cc(Cl)c(Cl)cc32)C(O)C1O` (configuration not stated), the melting point lay in the range of 70 to 72 °C. Consider `CC(C)CCN1C(=O)C(NC(=O)Nc2ccccc2)C(=O)N(CC23CC4CC(CC(C4)C2)C3)c2ccccc21` (configuration not stated), for which the melting point was 156 to 157 °C. Molecule `O=C(O)C(Cc1ccccc1)Oc1ccc(-c2ccc(-c3c(Cc4ccc(O)c(O)c4)sc4ccccc34)cc2)cc1` (configuration not stated) came in with a melting point of 108 to 110 °C.

Turning to `C#Cc1ccc2ncsc2c1`, the melting point is 47.5 to 49 °C.

As to `CCCCCCCC[C@H](N[C@@H](C)C(=O)N1C(=O)N(C)C[C@H]1C(=O)O)C(=O)OCC`, the melting point fell in the range of 85 to 86 °C.

`Cc1ccc(S(=O)(=O)NC[C@H](C)NCc2c(Cl)ccc([N+](=O)[O-])c2Cl)cc1`: the melting point is 85 to 88 °C. With `CCn1cc(C(=O)O)c(=O)c2cc(F)c(N3CCNCC3)c(OC)c21` the figure was 169 °C; with `CC1(C)Oc2ccc(Cl)cc2[C@@H](N2CCCC2=O)[C@@H]1O` (relative stereo), 202 to 203 °C. Turning to `CC(O)CN(CC(C)O)c1cc(C(C)(C)C)cc(C(C)(C)C)c1` (configuration not stated), the melting point was found to be 139 °C. With `CCc1sc2nc(C(=O)OC)cn2c1C` the figure was 94 to 95 °C; with `COC(=O)CCCCCC(O)c1ccc(-n2ccnc2)cc1` (configuration not stated), 77 to 78 °C. For `FC(F)(F)c1csc(Nc2cc3ccccc3cn2)n1`, the melting point lay in the range of 200 to 203 °C. `Brc1ccc(C2CC(n3cncn3)c3ccccc3N2)cc1` (configuration not stated) had a melting point of 158 to 160 °C. With `O=C(O)C(c1ccc2c(c1)OCO2)n1nc(-c2ccccn2)ccc1=O` (configuration not stated) the figure was 115 °C; with `Cc1nc(COc2ccc3c(c2)[C@H](O)[C@H](Cc2cccnc2)CO3)ccc1Br` (relative stereo), 134 to 137 °C.

In the case of `O=C(O)C1=Cc2cc(Cl)c(Oc3cccc(Cl)c3)cc2OC1C(F)(F)F` (configuration not stated), the melting point fell in the range of 174 to 176 °C. In the case of `CCCN(CC1CC1)C(=O)c1c2c(nn1C)N(c1c(C)cc(C)cc1Cl)CCC2`, the melting point was in the range of 121 to 122 °C. The result for `COC(=N)N1CCC(c2nn(-c3ccccc3)c3ccccc23)CC1` reads 80 to 83 °C. With `Cc1ccc(-c2cc(F)c3c(c2)CC(CN)O3)cc1` (configuration not stated) the figure was more than 250 °C; with `Cc1cccc(Nc2cc(Cl)nc(SCC(=O)NN3CCCCC3)n2)c1C`, 113 to 115 °C. The result for `Cc1ccc(Cc2cnc(NCCSCc3csc(CN(C)C)n3)[nH]c2=O)cn1` reads 154 to 155 °C; that for `CC(=O)c1ccc(C(=C2CC(C)(C)CC(C)(C)C2)c2ccc(O)cc2)cc1`, 195 to 196 °C.

For the molecule `CCCCCCNC1=NS(=O)(=O)c2ccc(Cl)cc2N1`, the melting point lay within 244 to 247 °C. With `O=C1CCC(N2C(=O)c3ccc(CNC(=O)NC4CCCCC4)cc3C2=O)C(=O)N1` (configuration not stated) the figure was 208 to 210 °C; with `Cc1c(C)c2c(c(C)c1OCc1ccc(S(C)(=O)=O)cc1)C(c1ccc(C(C)C)cc1)C(C)(C)O2` (configuration not stated), 161 to 162 °C; with `c1cc2cc3cnccc3cc2cn1`, 174 °C. `CCNc1nc(OC)c(C(=O)NCCN(CC)CC)nc1Cl` registered a melting point of 142 °C. The result for `Cc1c2c3c(nc(N)c2nn1C)CCCC3` reads 258 to 259 °C; that for `CCSc1ccc(Oc2ccc(C(=O)c3ccccc3)cc2)nc1C#N`, 88 to 90 °C; that for `O=[N+]([O-])c1ccc(Oc2cccc3c(Oc4ccc([N+](=O)[O-])c([N+](=O)[O-])c4)cccc23)cc1[N+](=O)[O-]`, 224 to 228 °C. Consider `COC(=O)c1ccc(Cc2cccc3ccc(N)cc23)c(OC)c1`, for which the melting point lay within 138 to 140 °C. With `Cc1[nH]c2cccc(/C=C/C(=O)OCc3ccccc3)c2c1Cn1ccnc1` the figure was 207 to 208 °C; with `CC(=O)c1ccc(S(=O)(=O)NCc2ccncc2)cc1`, 162 to 167 °C; with `NS(=O)(=O)c1ccc(-n2nc(C(F)(F)F)cc2-c2ccc(-c3ccco3)cc2)c(Cl)c1`, 190 °C. Take `CCCOC(C)c1ccc(C(=O)O)cc1` (single isomer, unassigned; (+)): the melting point was in the range of 56 to 58 °C. The result for `O=C(Cc1ccc(Cl)cc1)c1cccs1` reads 98 to 99 °C. `CCC=C(NC(=O)C1CC1(C)C)C(=O)O` (configuration not stated): the melting point was 154 to 156 °C. `N#CC(c1ccccc1)(c1ccccc1)n1ccnc1` yielded a melting point of 95 to 98 °C. `COc1ccc(-c2[nH]nc3c2C(=O)c2c(NC(=O)NCc4ccc(N)cc4)cccc2-3)cc1` had a melting point of more than 300 °C.

As for `Oc1ccc(-c2ncc3ncc(Nc4ccncc4)cc3n2)cc1`, the melting point was more than 268 °C. With `CCOP(=O)(OCC)C(O)c1ccccc1` (configuration not stated) the figure was 83 to 83.5 °C; with `FC(F)(F)c1cccc(CSc2nc3cnccc3[nH]2)c1`, 148 to 150 °C.

The term melting point denotes the temperature of the solid-liquid transition.
